Structures are written as SMILES.

The values that follow come from article PMC4049391, “Cadmium exposure and sulfate limitation reveal differences in the transcriptional control of three sulfate transporter (Sultr1;2) genes in Brassica juncea” (BMC Plant Biology, 2014).

The target in this assay is T1, AtSultr2;1 (Arabidopsis thaliana, UniProt O04722).
T1 construct: gene SULTR2; full-length ORF from Arabidopsis root RNA in pESC-TRP (GAL10 promoter), expressed in Saccharomyces cerevisiae CP154-7A
T1 sequence (O04722 1-677): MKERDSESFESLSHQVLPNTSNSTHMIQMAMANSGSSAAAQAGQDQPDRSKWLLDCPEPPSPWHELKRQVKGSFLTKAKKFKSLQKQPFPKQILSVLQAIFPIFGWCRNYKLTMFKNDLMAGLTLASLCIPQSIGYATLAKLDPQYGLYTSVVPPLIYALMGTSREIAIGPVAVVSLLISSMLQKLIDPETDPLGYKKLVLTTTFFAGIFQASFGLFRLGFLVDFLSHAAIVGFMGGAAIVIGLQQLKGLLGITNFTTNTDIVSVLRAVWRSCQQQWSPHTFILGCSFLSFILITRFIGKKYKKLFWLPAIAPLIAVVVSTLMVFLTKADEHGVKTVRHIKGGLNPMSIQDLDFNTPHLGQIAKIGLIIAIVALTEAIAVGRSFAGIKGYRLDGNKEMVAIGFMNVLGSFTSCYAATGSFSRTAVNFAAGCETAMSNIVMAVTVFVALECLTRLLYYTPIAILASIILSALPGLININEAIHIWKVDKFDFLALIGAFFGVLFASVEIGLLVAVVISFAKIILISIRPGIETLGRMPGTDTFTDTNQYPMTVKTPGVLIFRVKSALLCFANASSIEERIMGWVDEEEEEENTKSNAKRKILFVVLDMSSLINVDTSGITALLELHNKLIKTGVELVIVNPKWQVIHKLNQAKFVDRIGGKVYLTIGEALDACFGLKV
As to the kind of experiment: growth rate of complemented yeast versus sulfate, Michaelis-Menten fit. It counts as cell-based. To be noted: growth constant as estimate of apparent Km; sulfate 0-3 mM as sole sulfur source, 28°C; yeast CP154-7A.

Take `O=S(=O)(O)O` [sulfate]: the kG entry is “Estimation of the growth constant (kG) for sulfate”.
